Data: US20080090805A1, “CB-1 MODULATING COMPOUNDS AND THEIR USE” (ACADIA PHARMACEUTICALS INC., priority 2005, published 2008)

Tested on: NSA mice
Experiment: Hypothermia study (block of CP 55,940-induced hypothermia)
Format: in vivo
Parameters: Hypothermia 3 mg/kg / Hypothermia 0.3 mg/kg: unit not given here
Details: for Hypothermia ID50: block of CP 55,940-induced hypothermia
Experimental: . […] Core body temperatures were then obtained at various time points following CP 55,940 administration. Core body temperature (to the nearest 0.1° C.) was obtained by rectal probe.

| SMILES | Hypothermia 0.3 mg/kg | Hypothermia 3 mg/kg | Hypothermia ID50 |
| --- | --- | --- | --- |
| CC(C)CCNC(=O)c1ccc2c(c1)N=C(c1cccc(F)c1)c1ccccc1S2 [drawing 1602] | 0 | 67 |  |
| O=C(NCc1cccc(Cl)c1)c1ccc2c(c1)N=C(c1ccc(F)cc1)c1ccccc1S2 [drawing 1618] | 16 | 50 |  |
| CCCCNC(=O)c1ccc2c(c1)N=C(c1ccc(Cl)s1)c1ccccc1S2 [drawing 1568] | 12 | 53 | 2.3 mg/kg |
| O=C(NCc1ccccn1)c1ccc2c(c1)N=C(c1ccc(Cl)cc1)c1ccccc1S2 [drawing 1637] |  | 42 |  |
| O=C(NCc1ccco1)c1ccc2c(c1)N=C(c1ccc(Cl)cc1)c1ccccc1S2 [drawing 1650] | 28 | 79 | 0.9 mg/kg |
| O=C(NCc1cccnc1)c1ccc2c(c1)N=C(c1ccc(Cl)cc1)c1ccccc1S2 [drawing 1633] |  | 27 |  |
| O=C(NCc1cccs1)c1ccc2c(c1)N=C(c1ccc(F)cc1)c1ccccc1S2 [drawing 1558] | 19 | 90 | 1 mg/kg |
| O=C(NCc1cccnc1)c1ccc2c(c1)N=C(c1ccc(Cl)c(Cl)c1)c1ccccc1S2 [drawing 1565] | 1 | 19 |  |
| O=C(NCc1cccs1)c1ccc2c(c1)N=C(c1cccc(Cl)c1)c1ccccc1S2 [drawing 1622] |  | 61 |  |
| O=C(NN1CCCCCC1)c1ccc2c(c1)N=C(c1cccc(Cl)c1)c1ccccc1S2 [drawing 1586] | −27 | 86 | 1.14 mg/kg |
| Cc1csc(CNC(=O)c2ccc3c(c2)N=C(c2sccc2C)c2ccccc2S3)c1 [drawing 1610] |  | −2 |  |
| Cc1ccsc1C1=Nc2cc(C(=O)NCc3cccs3)ccc2Sc2ccccc21 [drawing 1642] |  | 25 |  |
| O=C(NCCC(F)(F)F)c1ccc2c(c1)N=C(c1ccc(Cl)s1)c1ccccc1S2 [drawing 1624] |  | 37 |  |
| CC(C)CCNC(=O)c1ccc2c(c1)N=C(c1ccccn1)c1ccccc1S2 [drawing 1649] |  | 21 |  |
| CCCCNC(=O)c1ccc2c(c1)N=C(c1ccc(Cl)s1)c1cc(Cl)ccc1S2 [drawing 1577] |  | −9 |  |
| CCCCNC(=O)c1ccc2c(c1)N=C(c1ccc(Cl)c(F)c1)c1ccccc1S2 [drawing 1626] |  | 79 |  |
| O=C(NN1CCCCC1)c1ccc2c(c1)N=C(c1ccc(F)cc1)c1ccccc1S2 [drawing 1582] | 7 | 87 | 0.96 mg/kg |
| O=C(NC1CCC(F)(F)CC1)c1ccc2c(c1)N=C(c1cccc(F)c1)c1ccccc1S2 [drawing 1608] |  | 46 |  |
| Cc1ccsc1C1=Nc2cc(C(=O)NCCCC(F)(F)F)ccc2Sc2ccccc21 [drawing 1598] |  | 24 |  |
| CC(C)CNC(=O)c1ccc2c(c1)N=C(c1ccc(Cl)s1)c1ccc(F)cc1S2 [drawing 1644] |  | 12 |  |
| O=C(NC1CCCCC1)c1ccc2c(c1)N=C(c1cccc(Cl)c1)c1ccccc1S2 [drawing 1574] |  | 74 |  |
| CC(C)CNC(=O)c1ccc2c(c1)N=C(c1ccc(Cl)cc1)c1ccc(F)cc1S2 [drawing 1556] |  | 41 |  |
| O=C(NN1CCCCCC1)c1ccc2c(c1)N=C(c1ccc(Cl)s1)c1ccccc1S2 [drawing 1584] | 33 | 83 | 0.59 mg/kg |
| CC(C)CNC(=O)c1ccc2c(c1)N=C(c1ccc(Cl)s1)c1ccccc1S2 [drawing 1578] | 23 | 73 |  |
| CCCCNC(=O)c1ccc2c(c1)N=C(c1ccc(Cl)cc1)c1ccc(Cl)cc1S2 [drawing 1617] |  | 30 |  |
| CCCCNC(=O)c1ccc2c(c1)N=C(c1cccc(Cl)c1)c1cc(F)ccc1S2 [drawing 1579] |  | 8 |  |
| CCCCNC(=O)c1ccc2c(c1)N=C(c1ccc(Cl)s1)c1ccc(Cl)cc1S2 [drawing 1589] |  | 1 |  |
